In ChEMBL document CHEMBL1158683, “Cytotoxic sesquiterpenoids from Ratibida columnifera” (1999) one finds EC50 and Activity data, which are given here for 2 compounds.

In brackets after ≈: the same amount, converted by molar mass. Activity calls are given as the source filed them. The calls are words filed in the database; no cut-off is given here.

Test system in one assay: not listed separately
Nature of the assay: Cytotoxicity against human BC1 cells. It counts as functional. The note with it: read-out: ED50 (the source's name).
On to `COc1c(O)cc2oc(-c3ccc(O)cc3)cc(=O)c2c1O` [HISPIDULIN], for which the EC50 was greater than 20 µg/mL.

For the compound `C=C1C(=O)O[C@@H]2[C@@H]1C[C@@H](O)[C@H](C)[C@@](O)(C(=O)CC(C)O)[C@H]2OC(=O)C(C)CC` (stereo partly specified), the EC50 was 9 µg/mL (≈ 22.6 µM).

For the next assay, the system named is HT. Nature of the assay: Cytotoxicity against human HT cells. Format: functional. To be noted: read-out: ED50 (the source's name).
Take `COc1c(O)cc2oc(-c3ccc(O)cc3)cc(=O)c2c1O` [HISPIDULIN]: the EC50 stood at 10.1 µg/mL (≈ 33.6 µM).

The test system of another assay is Lu1. Put plainly: Cytotoxicity against human Lu1 cells. The note with it: read-out: ED50 (the source's name). Format: functional.
Consider `COc1c(O)cc2oc(-c3ccc(O)cc3)cc(=O)c2c1O` [HISPIDULIN], for which the EC50 was greater than 20 µg/mL.

`C=C1C(=O)O[C@@H]2[C@@H]1C[C@@H](O)[C@H](C)[C@@](O)(C(=O)CC(C)O)[C@H]2OC(=O)C(C)CC` (stereo partly specified): the EC50 was found to be 16.8 µg/mL (≈ 42.2 µM).

Another assay relates to Col2. Nature of the assay: Cytotoxicity against human Col2 cells. Format: functional. The note with it: read-out: ED50 (the source's name).
For the compound `COc1c(O)cc2oc(-c3ccc(O)cc3)cc(=O)c2c1O` [HISPIDULIN], the EC50 was greater than 20 µg/mL.

For the compound `C=C1C(=O)O[C@@H]2[C@@H]1C[C@@H](O)[C@H](C)[C@@](O)(C(=O)CC(C)O)[C@H]2OC(=O)C(C)CC` (stereo partly specified), the EC50 was found to be 8.7 µg/mL (≈ 21.8 µM).

The next assay deals with KB. Put plainly: Cytotoxicity against human KB cells. It counts as functional. To be noted: read-out: ED50 (the source's name).
For `COc1c(O)cc2oc(-c3ccc(O)cc3)cc(=O)c2c1O` [HISPIDULIN], the EC50 was 18.8 µg/mL (≈ 62.6 µM).

Turning to `C=C1C(=O)O[C@@H]2[C@@H]1C[C@@H](O)[C@H](C)[C@@](O)(C(=O)CC(C)O)[C@H]2OC(=O)C(C)CC` (stereo partly specified), the EC50 amounted to 12.7 µg/mL (≈ 31.9 µM).

Test system in the next assay: not listed separately
Nature of the assay: Cytotoxicity against human multidrug-resistant KB-V1+ cells in presence of vinblastine. Format: functional. The note with it: read-out: ED50 (the source's name).
In the case of `COc1c(O)cc2oc(-c3ccc(O)cc3)cc(=O)c2c1O` [HISPIDULIN], the EC50 was 1.3 µg/mL.

As to `C=C1C(=O)O[C@@H]2[C@@H]1C[C@@H](O)[C@H](C)[C@@](O)(C(=O)CC(C)O)[C@H]2OC(=O)C(C)CC` (stereo partly specified), the EC50 was greater than 20 µg/mL.

Test system in the next assay: not listed separately
Put plainly: Cytotoxicity against human multidrug-resistant KBV1 cells in absence of vinblastine. It counts as functional. The note with it: KB-V1, read-out: ED50 (the source's name).
On to `COc1c(O)cc2oc(-c3ccc(O)cc3)cc(=O)c2c1O` [HISPIDULIN], for which the EC50 is 8.7 µg/mL (≈ 29 µM).

For `C=C1C(=O)O[C@@H]2[C@@H]1C[C@@H](O)[C@H](C)[C@@](O)(C(=O)CC(C)O)[C@H]2OC(=O)C(C)CC` (stereo partly specified), the EC50 is greater than 20 µg/mL.

The next assay has as its system A-431. Nature of the assay: Cytotoxicity against human A431 cells. To be noted: read-out: ED50 (the source's name). It counts as functional.
Consider `COc1c(O)cc2oc(-c3ccc(O)cc3)cc(=O)c2c1O` [HISPIDULIN], for which the EC50 was determined as 1.2 µg/mL (≈ 4 µM).

The subject of the next assay is LNCaP. Nature of the assay: Cytotoxicity against hormone-dependent human LNCaP cells. The note with it: read-out: ED50 (the source's name). It counts as functional.
In the case of `COc1c(O)cc2oc(-c3ccc(O)cc3)cc(=O)c2c1O` [HISPIDULIN], the EC50 came out at 7.1 µg/mL (≈ 23.6 µM).

As to `C=C1C(=O)O[C@@H]2[C@@H]1C[C@@H](O)[C@H](C)[C@@](O)(C(=O)CC(C)O)[C@H]2OC(=O)C(C)CC` (stereo partly specified), the EC50 is 8.1 µg/mL (≈ 20.3 µM).

The subject of another assay is ZR-75-1. Put plainly: Cytotoxicity against hormone-dependent human ZR751 cells. It counts as functional. To be noted: read-out: ED50 (the source's name).
On to `COc1c(O)cc2oc(-c3ccc(O)cc3)cc(=O)c2c1O` [HISPIDULIN], for which the EC50 amounted to 1.2 µg/mL (≈ 4 µM).

Test system in the next assay: not listed separately
Nature of the assay: Cytotoxicity against human U373 cells. Format: functional, U-373MG ATCC. The note with it: U373 MG, read-out: ED50 (the source's name).
`COc1c(O)cc2oc(-c3ccc(O)cc3)cc(=O)c2c1O` [HISPIDULIN]: the EC50 came out at 8.8 µg/mL (≈ 29.3 µM).

The subject of a further assay is ASK. Nature of the assay: Cytotoxicity against human ASK cells at 20 ug/mL.
Conditions: not given
It counts as functional, cell-based.
As to `COc1c(O)cc2oc(-c3ccc(O)cc3)cc(=O)c2c1O` [HISPIDULIN], the result was inactive.

Take `C=C1C(=O)O[C@@H]2[C@@H]1C[C@@H](O)[C@H](C)[C@@](O)(C(=O)CC(C)O)[C@H]2OC(=O)C(C)CC` (stereo partly specified): the result was inactive.

Test system in another assay: not listed separately
Put plainly: Cytotoxicity against human Mel2 cells. It counts as functional. To be noted: read-out: ED50 (the source's name).
Consider `COc1c(O)cc2oc(-c3ccc(O)cc3)cc(=O)c2c1O` [HISPIDULIN], for which the EC50 turned out to be 14.6 µg/mL (≈ 48.6 µM).
